{"source": "patent US20060135569A1", "about": "“Use of benzisoselenazolone compounds against ischemic myocardial damage” (priority 2002, published 2006)", "key": {"[1]": {"test_system": "rats subjected to myocardial ischemia/reperfusion insult", "test": "Cardiac function and hemodynamics in rats subjected to myocardial ischemia/reperfusion", "type": "in vivo, rat", "settings": "30 mg/kg orally", "procedure": "Method: Male SD rats weighing 300-350 g were fasted for 12 hrs and anesthetized by i.p. treatment with 20% Urethane (0.5 ml/100 g, 1 g/kg). Polyethylene tubes (PE-50) were inserted into the left femoral artery, left femoral vein, right femoral vein and the left ventricle. The left femoral artery was cannulated for blood collection, and the left femoral vein was cannulated for liquid compensation, the right femoral artery was cannulated for blood pressure detection, the left ventricle was cannulated for ventricular pressure detection, left femoral artery and ventricle were cannulated and the catheter was linked with pressure transducer by triplet. Signals were acquired by oscillograph and multi-channel biodynamic recorder linked with the pressure transducer. Rats in drug-treated group were orally treated with IMM-004 at 30 mg/kg, while rats in vehicle control group was orally treated with an equal volume of vehicle (PEG). Dissect the trachea and artificial respiration was performed via respirator after thoracotomy (2 ml/100 g). A left thoracotomy was performed from the forth to fifth intercostals space by cutting off the forth and fifth rib 2 mm from the left border of sternum, and the pericardium was opened to expose the heart. A 3.0 silk ligature was placed under the left anterior descending coronary artery. The heart was taken back to the chest and allowed to stabilize for 10 min. The ends of the suture were threaded through a polyethylene tube (3×8 mm) to form a snare. Pull the ends of the suture taut and clamp the snare with a hemostat to occlude the coronary artery. Coronary artery occlusion was verified by epicardial cyanosis and subsequent decrease in arterial blood pressure. Reprefusion of the heart was initiated via unclamping the hemostat and loosening the snare for 15 min. Left ventricular systolic pressure (LVSP), left ventricular end-diastolic pressure (LVEDP), and maximum rate of left ventricular pressure (±dp/dtmax), artery systolic pressure (SP), artery diastolic pressure (DP), mean artery pressure (MAP) and heart rate (HR) were continuously recorded every 10 min before and after thoracotomy and during the period of ischemia (15 min) and reperfusion (1 h)."}, "[2]": {"test": "Acute toxicity study in mice", "type": "in vivo", "settings": "male, KM, mouse, in vivo; oral, mice; read-out: LD50 (50% lethal dose)", "procedure": "Acute toxicity studies were performed with IMM-004 and IMM-127 (synthesized by ourselves). The compound was provided as powder, which was milled and suspended in 0.5% carboxymethylcellulose sodium (CMC—Na) before use.\nMale KM mice weighting 19±2 g were housed for an adaptation before use. Mice were randomly divided into groups, and each group consists of 10 animals. Mice were all fasted for 14 hrs before the administration of the tested compounds. Activity of mice in high dose group was reduced 30 min after the administration. 24 h after the administration, mice in each group were restored to normal. Mice were observed daily for a period of 7 days after the administration."}}, "data": [{"smiles": "O=c1c2cc(Cl)ccc2[se]n1-c1ccccn1", "note": "[IMM-004, 5-chloro-2-(2-pyridyl)-1,2-benz-isoselenazol-3(2H)-one]", "values": [{"measurement": "+dp/dtmax", "setting": "[1]", "value": "about +110 mmHg/s"}, {"measurement": "Heart rate", "setting": "[1]", "value": "not influenced"}, {"measurement": "MAP", "setting": "[1]", "value": 80, "unit": "mmHg"}, {"measurement": "SBP", "setting": "[1]", "value": 100, "unit": "mmHg"}, {"measurement": "LVSP", "setting": "[1]; decreased steadily from 120 mmHg", "value": 100, "unit": "mmHg"}, {"measurement": "LVEDP", "setting": "[1]; equal to the baseline", "value": "about −6 mmHg"}, {"measurement": "−dp/dtmax", "setting": "[1]; reduced from 100 mmHg/s", "value": 70, "unit": "mmHg/s"}, {"measurement": "LD50 at 7 days", "setting": "[2]", "value": "> 5000", "unit": "mg/kg"}]}]}
